According to patent publication US7501430B2 (ArQule, Inc., priority 2006, dated 2009):

What follows are compounds tested against T1, mutant B-RAF (Homo sapiens, UniProt P15056, V600E) (assay: RAF biochemical assay (MEK-1 phosphorylation, anti-phospho MEK1/2 detection)). Conditions: @ 10 uM; read-out: Mutant B-RAF % inhibition.
T1 construct: purchased Upstate (Charlottesville, Va.)
Summary of the method: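 Detection is by ELISA: after a 30 min room-temperature reaction, plate-captured GST-MEK-1 is probed with anti-phospho MEK1/2, then an AP-tagged secondary antibody with fluorescent Attophos read-out.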

T1 sequence (P15056 whole entry V600E): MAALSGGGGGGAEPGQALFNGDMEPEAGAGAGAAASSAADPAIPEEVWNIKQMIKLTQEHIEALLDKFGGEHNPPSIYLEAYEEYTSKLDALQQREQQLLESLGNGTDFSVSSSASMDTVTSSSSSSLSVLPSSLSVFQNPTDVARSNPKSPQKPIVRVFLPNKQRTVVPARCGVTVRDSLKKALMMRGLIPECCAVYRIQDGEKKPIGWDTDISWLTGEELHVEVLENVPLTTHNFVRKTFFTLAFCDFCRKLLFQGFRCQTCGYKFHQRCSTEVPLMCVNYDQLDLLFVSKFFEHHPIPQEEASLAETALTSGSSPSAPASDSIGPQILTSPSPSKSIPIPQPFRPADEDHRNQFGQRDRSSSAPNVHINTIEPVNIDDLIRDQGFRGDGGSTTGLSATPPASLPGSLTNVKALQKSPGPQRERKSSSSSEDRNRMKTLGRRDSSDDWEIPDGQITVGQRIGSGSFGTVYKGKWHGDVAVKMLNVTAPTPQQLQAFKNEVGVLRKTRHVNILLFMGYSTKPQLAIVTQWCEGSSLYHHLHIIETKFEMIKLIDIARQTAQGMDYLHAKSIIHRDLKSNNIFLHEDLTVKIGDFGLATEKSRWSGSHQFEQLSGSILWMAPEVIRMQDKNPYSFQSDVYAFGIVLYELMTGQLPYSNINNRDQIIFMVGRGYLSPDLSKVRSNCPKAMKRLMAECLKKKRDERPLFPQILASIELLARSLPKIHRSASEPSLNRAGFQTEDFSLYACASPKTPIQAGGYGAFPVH

inhibition at 10 µM [%]	SMILES
42	COc1cccc(-c2nc3sccn3c2-c2ccnc(N[C@H]3CCCNC3)n2)c1 [Example 137, 4-[6-(3-methoxyphenyl)imidazo[2,1-b][1,3]thiazol-5-yl]-N-[(3S)-piperidin-3-yl]pyrimidin-2-amine]
19	N#Cc1cccc(-c2nc3sccn3c2-c2ccnc(N[C@@H]3CCCNC3)n2)c1 [Example 125, 3-(5-{2-[(3R)-piperidin-3-ylamino]pyrimidin-4-yl}imidazo[2,1-b][1,3]thiazol-6-yl)benzonitrile]
33	CS(=O)(=O)N1CCC(Nc2nccc(-c3c(-c4cccc(C(F)(F)F)c4)nc4occn34)n2)CC1 [Example 309, N-[1-(methylsulfonyl)piperidin-4-yl]-4-{6-(3-(trifluoromethyl)phenyl]imidazo[2,b][1,3]oxazol-5-yl)pyrimidin-2-amine]
33	CC(=O)N1CCC(Nc2nccc(-c3c(-c4ccc(F)cc4F)nc4occn34)n2)CC1 [Example 310, N-(1-acetylpiperidin-4-yl)-4-[6-(2,4-difluorophenyl)imidazo[2,1-b][1,3]oxazol-5-yl]pyrimidin-2-amine]
71	Fc1ccc(-c2nc3sccn3c2-c2ccnc(NC3CCNCC3)n2)cc1F [Example 223, 4-[6-(3,4-difluorophenyl)imidazo[2,1-b][1,3]thiazol-5-yl]-N-piperidin-4-ylpyrimidin-2-amine]
37	COc1cccc(-c2nc3sccn3c2-c2ccnc(N[C@@H]3CCN(S(=O)(=O)c4ccc(Cl)cc4)C3)n2)c1 [Example 280, N-{(3R)-1-[(4-chlorophenyl)sulfonyl]pyrro-lidin-3-yl}-4-[6-(3-methoxyphenyl)imidazo[2,1-b][1,3]thiazol-5-yl]pyrimidin-2-amine]
47	c1ccc2cc(-c3nc4sccn4c3-c3ccnc(NC4CCNCC4)n3)ccc2c1 [Example 244, 4-[6-(2-naphthyl)imidazo[2,1-b][1,3]thiazol-5-yl]-N-piperidin-4-ylpyrimidin-2-amine]

Further lines, the compound ahead of its results:

SMILES	inhibition at 10 µM [%]
Cc1cc(NC(=O)N2CCC(Nc3nccc(-c4c(-c5ccc(F)cc5)nc5occn45)n3)CC2)c(C(F)(F)F)o1 [Example 186, 4-({4-[6-(4-fluorophenyl)imidazo[2,1-b][1,3]oxazol-5-yl]pyrimidin-2-yl}amino)-N-[5-methyl-2-(trifluoromethyl)-3-furyl]piperidine-1-carboxamide]	16
COc1ccc(NC(=O)N2CCC[C@@H](Nc3nccc(-c4c(-c5ccc(F)cc5)nc5occn45)n3)C2)c(OC)c1 [Example 69, (3R)-N-(2,4-dimethoxy-phenyl)-3-({4-[6-(4-fluorophenyl)imidazo[2,1-b][1,3]oxazol-5-yl]pyrimidin-2-yl}amino)piperidine-1-carboxamide]	42
CS(=O)(=O)N1CCC(Nc2nccc(-c3c(-c4ccccc4Cl)nc4occn34)n2)CC1 [Example 311, 4-[6-(2-chlorophenyl)imidazo[2,1-b][1,3]oxazol-5-yl]-N-[1-(methylsulfonyl)piperidin-4-yl]pyrimidin-2-amine]	61
O=C(c1ccncc1)N1CCC(Nc2nccc(-c3c(-c4ccc(F)cc4)nc4occn34)n2)CC1 [Example 165, 4-[6-(4-fluorophenyl)imidazo[2,1-b][1,3]oxazol-5-yl]-N-(1-isonicotinoylpiperidin-4-yl)pyrimidin-2-amine]	33
O=C(Nc1ccccc1F)N1CCC[C@@H](Nc2nccc(-c3c(-c4ccc(F)cc4)nc4occn34)n2)C1 [Example 74, (3R)-N-(2-fluorophenyl)-3-({4-[6-(4-fluorophenyl)imidazo[2,1-b][1,3]oxazol-5-yl]pyrimidin-2-yl}amino)piperidine-1-carboxamide]	35

Same assay, conditions: read-out: Mutant B-RAF % inhibition

SMILES	inhibition at 10 µM [%]
COc1cccc(-c2nc3sccn3c2-c2ccnc(N[C@@H]3CCCN(C(=O)Nc4ccc(N(C)C)cc4)C3)n2)c1 [Example 84, (3R)-N-[4-(dimethylamino)phenyl]-3-({4-[6-(3-methoxyphenyl)imi-dazo[2,1-b][1,3]thiazol-5-yl]pyrimidin-2-yl}amino)piperidine-1-carboxamide]	19
COc1cccc(S(=O)(=O)N2CCC[C@@H](Nc3nccc(-c4c(-c5ccc(F)cc5)nc5occn45)n3)C2)c1 [Example 57, 4-[6-(4-fluorophenyl)imi-dazo[2,1-b][1,3]oxazol-5-yl]-N-{(3R)-1-[(3-methoxy-phenyl)sulfonyl]piperidin-3-yl}pyrimidin-2-amine]	34

Same assay, conditions: read-out: Mutant B-RAF IC50

IC50 [µM]	SMILES
3.26	O=C(Nc1ccc(F)cc1)N1CCC[C@@H](Nc2nccc(-c3c(-c4cccc(O)c4)nc4sccn34)n2)C1 [Example 335, (3R)-N-(4-fluorophenyl)-3-({4-[6-(3-hydroxyphenyl)imidazo[2,1-b][1,3]thiazol-5-yl]pyrimidin-2-yl}amino)piperidine-1-carboxamide]
0.028	N#Cc1ccc(S(=O)(=O)N2CCC[C@@H](Nc3nccc(-c4c(-c5cccc(O)c5)nc5sccn45)n3)C2)cc1 [Example 111, 4-{[(3R)-3-({4-[6-(3-hydroxyphenyl)imidazo[2,1-b][1,3]thiazol-5-yl]pyrimidin-2-yl}amino)piperidin-1-yl]sulfonyl}benzonitrile]
0.188	COc1ccc(S(=O)(=O)N2CCC[C@@H](Nc3nccc(-c4c(-c5cccc(OC)c5)nc5sccn45)n3)C2)cc1 [Example 149, 4-[6-(3-methoxyphenyl)imidazo[2,1-b][1,3]thiazol-5-yl]-N-{(3R)-1-[(4-methoxyphenyl)sulfonyl]piperidin-3-yl}pyrimidin-2-amine]
0.01	CS(=O)(=O)N1CCC(Nc2nccc(-c3c(-c4cccc(O)c4)nc4sccn34)n2)CC1 [Example 332, 3-[5-(2-{[1-(methylsulfonyl)piperidin-4-yl]amino}pyrimidin-4-yl)imidazo[2,1-b][1,3]thiazol-6-yl}phenol]
1.79	CCCNC(=O)N1CCC(Nc2nccc(-c3c(-c4cccc(O)c4)nc4sccn34)n2)CC1 [Example 355, 4-({4-[6-(3-hydroxyphenyl)imidazo[2,1-b][1,3]thiazol-5-yl]pyrimidin-2-yl}amino)-N-propylpiperidine-1-carboxamide]
4	COc1cccc(-c2nc3occn3c2-c2ccnc(NC3CCN(C(=O)NS(=O)(=O)c4ccc(Cl)cc4)CC3)n2)c1 [Example 324, N-[(4-chlorophenyl)sulfonyl]-4-({4-[6-(3-methoxyphenyl)imidazo[2,1-b][1,3]oxazol-5-yl]pyrimidin-2-yl}amino)piperidine-1-carboxamide]
1.05	O=C(NS(=O)(=O)c1ccc(Cl)cc1)N1CCC(Nc2nccc(-c3c(-c4cccc(O)c4)nc4sccn34)n2)CC1 [Example 336, N-[(4-chlorophenyl)sulfonyl]-4-({4-[6-(3-hydroxyphenyl)imidazo[2,1-b][1,3]thiazol-5-yl]pyrimidin-2-yl}amino)piperidine-1-carboxamide]
0.28	O=Cc1cccc(-c2nc3sccn3c2-c2ccnc(N[C@@H]3CCCN(S(=O)(=O)c4ccc(Cl)cc4)C3)n2)c1 [Example 390, 3-{5-[2-({(3R)-1-[(4-chlorophenyl)sulfonyl]piperidin-3-yl}amino)pyrimidin-4-yl]imidazo[2,1-b][1,3]thiazol-6-yl}benzaldehyde]
0.002	O=S(=O)(c1ccc(Cl)cc1)N1CCC[C@@H](Nc2nccc(-c3c(-c4cccc(O)c4)nc4sccn34)n2)C1 [Example 288, 3-{5-[2-({(3R)-1-[(4-chlorophenyl)sulfonyl]piperidin-3-yl}amino)pyrimidin-4-yl]imidazo[2,1-b][1,3]thiazol-6-yl}phenol]

Continued, compound first:

SMILES	IC50 [µM]
O=S(=O)(c1cccc(Cl)c1)N1CCC(Nc2nccc(-c3c(-c4ccc(F)cc4)nc4occn34)n2)CC1 [Example 206, N-{1-[(3-chlorophenyl)sulfonyl]piperidin-4-yl}-4-[6-(4-fluorophenyl)imidazo[2,1-b][1,3]oxazol-5-yl]pyrimidin-2-amine]	0.329
COc1ccc(S(=O)(=O)N2CCC(Nc3nccc(-c4c(-c5ccc(F)cc5)nc5occn45)n3)CC2)cc1 [Example 200, 4-[6-(4-fluorophenyl)imidazo[2,1-b][1,3]oxazol-5-yl]-N-{1-[(4-methoxyphenyl)sulfonyl]piperidin-4-yl}pyrimidin-2-amine]	0.115
CCOC(=O)c1ccc(-c2nc3sccn3c2-c2ccnc(N[C@@H]3CCCN(S(=O)(=O)c4ccc(Cl)cc4)C3)n2)cc1OCC [Example 130, ethyl 4-{5-[2-({(3R)-1-[(4-chlorophenyl)sulfonyl]piperidin-3-yl}amino)pyrimidin-4-yl]imidazo[2,1-b][1,3]thiazol-6-yl}-2-ethoxybenzoate]	1.09
NC(=O)c1ccc(-c2nc3sccn3c2-c2ccnc(N[C@@H]3CCCN(S(=O)(=O)c4ccc(Cl)cc4)C3)n2)cc1 [Example 379, 4-{5-[2-({(3R)-1-[(4-chlorophenyl)sulfonyl]piperidin-3-yl}amino)pyrimidin-4-yl]imidazo[2,1-b][1,3]thiazol-6-yl}benzamide]	2.67
Cc1cn2c(-c3ccnc(NC4CCN(S(=O)(=O)c5ccc(C(=O)O)cc5)CC4)n3)c(-c3ccc(F)cc3)nc2s1 [Example 258, 4-{[4-({4-[6-(4-fluorophenyl)-2-methylimidazo[2,1-b][1,3]thiazol-5-yl]pyrimidin-2-yl}amino)piperidin-1-yl]sulfonyl}benzoic acid]	0.322
CC(C)c1ccc(S(=O)(=O)N2CCC(Nc3nccc(-c4c(-c5ccc(F)cc5)nc5occn45)n3)CC2)cc1 [Example 201, 4-[6-(4-fluorophenyl)imidazo[2,1-b][1,3]oxazol-5-yl]-N-{1-[(4-isopropylphenyl)sulfonyl]piperidin-4-yl}pyrimidin-2-amine]	0.42

Same assay, conditions: read-out: Mutant B-RAF IC50 (uM) or % inhibition

IC50 [µM]	SMILES
1.3	CC(=O)c1ccc(-c2nc3sccn3c2-c2ccnc(N[C@@H]3CCCN(S(=O)(=O)c4ccc(Cl)cc4)C3)n2)cc1 [Example 400, 1-(4-{5-[2-({(3R)-1-[(4-chlorophenyl)sulfonyl]piperidin-3-yl}amino)pyrimidin-4-yl]imidazo[2,1-b][1,3]thiazol-6-yl}phenyl)ethanone]
